# Results reported in ChEMBL document CHEMBL5329193, “Targeting Mycobacterium tuberculosis iron-scavenging tools: a recent update on siderophores inhibitors” (RSC Med Chem, 2023).
# Assays:
# [1] = biological target: T1, Salicyl-AMP ligase / salicyl-S-ArCP synthetase (Mycobacterium tuberculosis, UniProt P71716); assay: Binding affinity to Mycobacterium tuberculosis H37Rv ATCC 25618 MbtA assessed as apparent binding constant; conditions: read-out: Ki(app)
# T1 sequence (P71716 whole entry): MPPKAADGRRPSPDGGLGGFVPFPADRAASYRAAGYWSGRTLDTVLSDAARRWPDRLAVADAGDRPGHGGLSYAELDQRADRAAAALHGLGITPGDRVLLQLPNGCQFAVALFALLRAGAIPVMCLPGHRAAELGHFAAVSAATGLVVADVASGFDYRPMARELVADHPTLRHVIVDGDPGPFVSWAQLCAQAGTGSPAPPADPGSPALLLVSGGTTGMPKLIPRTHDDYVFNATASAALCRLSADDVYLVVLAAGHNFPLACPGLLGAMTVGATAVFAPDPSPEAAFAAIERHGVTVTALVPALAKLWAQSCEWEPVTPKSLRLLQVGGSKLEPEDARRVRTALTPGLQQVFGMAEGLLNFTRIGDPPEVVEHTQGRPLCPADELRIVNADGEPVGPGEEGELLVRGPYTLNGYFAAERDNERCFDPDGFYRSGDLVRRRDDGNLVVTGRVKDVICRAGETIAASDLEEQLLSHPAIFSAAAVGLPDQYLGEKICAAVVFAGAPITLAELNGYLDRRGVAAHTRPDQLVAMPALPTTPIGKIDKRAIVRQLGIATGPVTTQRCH
# [2] = tested on: Mycobacterium tuberculosis; assay: Antibacterial activity against Mycobacterium tuberculosis H37Rv assessed as reduction in bacterial growth incubated for 7 to 14 days by broth microdilution method; type: functional; conditions: time 7-14 day
# [3] = tested on: Mycobacterium tuberculosis; assay: Antibacterial activity against Mycobacterium tuberculosis H37Rv assessed as reduction in bacterial growth incubated for 7 to 14 days; type: functional; conditions: time 7-14 day
# [4] = tested on: Mycobacterium tuberculosis; assay: Antimycobacterial activity against Mycobacterium tuberculosis assessed as reduction in bacterial growth measured after 7 days by fluorescence microplate analysis; type: functional, organism-based; conditions: 168 h; for MIC: time 7 day
# [5] = tested on: Mycobacterium tuberculosis; assay: Antitubercular activity against Mycobacterium tuberculosis XDR-FJ05195 assessed as inhibition of bacterial growth incubated for 14 days by microplate alamar blue assay; type: functional; conditions: XDR-FJ05195, 336 h, time 14 day
# [6] = tested on: Mycobacterium tuberculosis; assay: Antimycobacterial activity against Mycobacterium tuberculosis H37Rv by green fluorescent protein microplate assay; type: functional
# [7] = tested on: Mycobacterium tuberculosis; assay: Antitubercular activity against Mycobacterium tuberculosis H37Rv assessed as reduction in microbial growth by broth dilution method; type: functional, organism-based
# [8] = biological target: T2, Enoyl-[acyl-carrier-protein] reductase [NADH] (Mycobacterium tuberculosis, UniProt P9WGR1); assay: Binding affinity to Mycobacterium tuberculosis InhA assessed as inhibition constant
# T2 sequence (P9WGR1 whole entry): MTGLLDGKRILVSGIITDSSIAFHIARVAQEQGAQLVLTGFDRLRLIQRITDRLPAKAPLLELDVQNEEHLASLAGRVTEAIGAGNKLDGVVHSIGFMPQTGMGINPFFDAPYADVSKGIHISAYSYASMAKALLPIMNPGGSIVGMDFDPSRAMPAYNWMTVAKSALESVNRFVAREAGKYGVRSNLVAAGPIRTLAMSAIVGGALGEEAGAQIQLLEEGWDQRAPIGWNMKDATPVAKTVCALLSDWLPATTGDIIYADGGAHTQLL
# [9] = tested on: Mycobacterium tuberculosis; assay: Antimycobacterial activity against Mycobacterium tuberculosis assessed as inhibition of bacterial growth incubated for 7 days by broth dilution method; type: functional; conditions: 168 h, time 7 day
# [10] = Inhibition of recombinant Mycobacterium tuberculosis salicylate synthase by fluorimetric assay
# [11] = tested on: Mycobacterium tuberculosis; assay: Antimycobacterial activity against Mycobacterium tuberculosis H37Rv assessed as reduction in bacterial growth after 7 days by resazurin based fluorescence assay; type: functional, organism-based; conditions: 168 h
# [12] = Binding affinity to Mycobacterium tuberculosis salicylate synthase using chorismic acid as substrate in presence of MgCl2 by fluorimetric assay
# [13] = tested on: Mycobacterium tuberculosis; assay: Antimycobacterial activity against Mycobacterium tuberculosis H37Rv assessed as inhibition of bacterial growth incubated for 7 days by broth dilution method; type: functional; conditions: 168 h, time 7 day
# [14] = Inhibition of Mycobacterium tuberculosis IdeR assessed as reduction in IdeR DNA binding activity by electrophoretic mobility shift assay
# [15] = tested on: Mycolicibacterium smegmatis; assay: Antimycobacterial activity against Mycobacterium smegmatis assessed as bacterial growth inhibition incubated for 48 hrs by resazurin dye based assay; type: functional
# [16] = biological target: T3, Trehalose monomycolate exporter MmpL3 (Mycolicibacterium smegmatis, UniProt A0QP27); assay: Binding affinity to Mycobacterium smegmatis MmpL3 by surface plasmon resonance assay
# T3 sequence (A0QP27 whole entry): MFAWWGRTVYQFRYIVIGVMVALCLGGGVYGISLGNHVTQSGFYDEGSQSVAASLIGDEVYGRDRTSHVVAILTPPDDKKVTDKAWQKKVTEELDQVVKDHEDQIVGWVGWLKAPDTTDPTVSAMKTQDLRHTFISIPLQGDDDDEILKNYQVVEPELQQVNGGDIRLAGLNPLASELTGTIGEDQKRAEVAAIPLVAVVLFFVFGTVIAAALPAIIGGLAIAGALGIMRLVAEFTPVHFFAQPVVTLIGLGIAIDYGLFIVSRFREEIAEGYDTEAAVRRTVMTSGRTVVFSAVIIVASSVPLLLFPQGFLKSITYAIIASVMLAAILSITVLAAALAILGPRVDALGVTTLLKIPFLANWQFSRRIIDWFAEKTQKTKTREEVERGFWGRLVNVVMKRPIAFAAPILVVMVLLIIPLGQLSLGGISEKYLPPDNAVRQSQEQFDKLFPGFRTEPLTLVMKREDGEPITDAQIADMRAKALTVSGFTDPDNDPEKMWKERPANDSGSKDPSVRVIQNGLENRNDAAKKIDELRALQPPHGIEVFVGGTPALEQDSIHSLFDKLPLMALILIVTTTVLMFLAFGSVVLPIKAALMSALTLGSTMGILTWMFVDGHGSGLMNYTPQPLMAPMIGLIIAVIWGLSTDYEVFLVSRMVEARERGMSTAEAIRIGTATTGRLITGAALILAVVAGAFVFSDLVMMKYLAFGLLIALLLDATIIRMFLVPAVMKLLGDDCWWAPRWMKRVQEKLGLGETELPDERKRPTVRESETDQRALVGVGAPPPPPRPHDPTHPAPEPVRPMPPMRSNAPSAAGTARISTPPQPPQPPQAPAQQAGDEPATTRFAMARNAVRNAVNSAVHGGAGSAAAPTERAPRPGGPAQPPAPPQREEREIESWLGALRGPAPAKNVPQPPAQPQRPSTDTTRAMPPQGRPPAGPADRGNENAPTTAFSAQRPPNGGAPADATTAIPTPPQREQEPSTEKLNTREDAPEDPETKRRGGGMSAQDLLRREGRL
# [17] = Cytotoxicity against mouse RAW264.7 cells assessed as reduction in cell viability incubated for 48 hrs by MTT assay; type: toxicity, cell-based
# [18] = tested on: Mycobacterium tuberculosis; assay: Antimycobacterial activity against intracellular Mycobacterium tuberculosis assessed as reduction in cell growth; type: functional
# [19] = tested on: Mycobacterium tuberculosis; assay: Antimycobacterial activity against Mycobacterium tuberculosis H37Rv assessed as reduction in bacterial growth incubated for 5 days by resazurin dye based fluorescence analysis; type: functional; conditions: 120 h, time 5 day
# [20] = tested on: Mycobacterium tuberculosis; assay: Antibacterial activity against Mycobacterium tuberculosis H37Rv assessed as reduction in bacterial growth; type: functional
# [21] = tested on: Mycolicibacterium smegmatis; assay: Antimycobacterial activity against Mycobacterium smegmatis ATCC 607 assessed as bacterial growth inhibition incubated for 48 hrs by resazurin dye based assay; type: functional
# [22] = tested on: Mycobacterium tuberculosis; assay: Antimycobacterial activity against Mycobacterium tuberculosis assessed as reduction in bacterial cell growth measured after 24 hrs; type: functional, organism-based
# [23] = tested on: Mycobacterium tuberculosis; assay: Antimicrobial activity against Mycobacterium tuberculosis H37Rv assessed as reduction in bacterial growth by Alamar Blue fluorescence assay; type: functional
# [24] = tested on: Mycobacterium tuberculosis; assay: Antimycobacterial activity against Mycobacterium tuberculosis H37Rv assessed as inhibition of bacterial growth incubated for 5 days by broth microdilution method; type: functional; conditions: 120 h, time 5 day
# [25] = tested on: Mycobacterium tuberculosis; assay: Antimycobacterial activity against Mycobacterium tuberculosis H37Ra assessed as reduction in bacterial growth by MABA method; type: functional
# [26] = tested on: Mycobacterium tuberculosis; assay: Antitubercular activity against Mycobacterium tuberculosis H37Rv ATCC 25618 assessed as reduction in bacterial growth; type: functional
smiles,measurement,setting,value
C#CCCC(=O)Nc1ccc(C(=O)c2ccc(Nc3nc(N)c4ncn([C@@H]5O[C@H](COS(=O)(=O)NC(=O)c6ccccc6O)[C@@H](O)[C@H]5O)c4n3)cc2)cc1,Ki,[1],0.00094 µM
same,MIC,[2],3 µM
same,MIC,[3],50 µM
Cc1ccc(-n2sc3ccccc3c2=O)cc1,IC50,[4],1.59 µM
CCCCCCCCCCCCCCCCC(=O)N(O)CCCC[C@H](NC(=O)[C@@H]1COC(c2ccccc2O)=N1)C(=O)NC[C@H](CC(=O)CCCO[C@H]1O[C@@H]2O[C@@]3(C)CC[C@H]4[C@H](C)CC[C@@H]([C@H]1C)[C@@]24OO3)C(=O)N[C@H]1CCCCN(O)C1=O,MIC,[5],0.078 µg/mL
same,MIC,[6],0.39 µg/mL
N#Cc1cc(-c2ccc(C(=O)O)o2)cc(C(F)(F)F)c1,IC50,[7],15 µM
same,Ki,[8],9 µM
O=C(O)c1ccc(-c2ccc([N+](=O)[O-])cc2Cl)o1,MIC,[9],21.1 µM
N#Cc1cc(C(F)(F)F)ccc1-c1ccc(C(=O)O)o1,Ki,[10],5.7 µM
same,IC50,[11],18.5 µM
CC=C(Oc1cccc(C(=O)O)c1O)C(=O)O,Ki,[12],11 µM
same,MIC,[13],> 1 µM
Nc1ncnc2c1ncn2[C@@H]1O[C@H](CNS(=O)(=O)NC(=O)c2ccccc2O)[C@@H](F)[C@H]1F,Ki,[12],0.139 µM
same,MIC,[4],37 µM
O=S(=O)(O)c1ccc(O)c(NNc2c(O)ccc3ccccc23)c1,IC50,[14],1 µg/mL
COc1ncnc2c1ncn2[C@@H]1O[C@H](CNS(=O)(=O)NC(=O)c2ccccc2O)[C@@H](O)[C@H]1O,MIC,[15],5.3 µg/mL
same,Ki,[16],0.277 µM
O=[N+]([O-])c1cc(C(F)(F)F)ccc1NCCc1c[nH]c2ccc(O)cc12,IC50 at 48 h,[17],29 µM
same,IC90,[18],9.3 µM
same,MIC90,[19],13 µM
Nc1ncnc2c1ncn2[C@@H]1O[C@H](CNS(=O)(=O)NC(=O)c2ccccc2O)[C@H](F)[C@H]1O,Ki,[12],0.0006 µM
same,MIC,[20],0.6 µM
CN(C[C@H]1O[C@@H](n2cnc3c(N)ncnc32)[C@H](O)[C@@H]1O)S(=O)(=O)NC(=O)c1ccccc1O,MIC,[15],0.8 µg/mL
same,Ki,[16],0.159 µM
N#Cc1cc([N+](=O)[O-])ccc1-c1ccc(C(=O)O)o1,Ki,[10],5 µM
same,IC50,[11],24.4 µM
O=c1cc(CC2CCCCC2)[nH]c2c(-c3ccc(Cl)cc3)cnn12,MIC,[21],2.5 µM
O=C(O)C1(Cc2ccc(O)c(O)c2)NCCS1 (stereo not drawn),IC50,[14],2.4 µg/mL
O=C(O)c1ccc(-c2ccc(C(F)(F)F)cc2C(F)(F)F)o1,Ki,[10],8.8 µM
Nc1ncnc2c1ncn2[C@@H]1O[C@H](CNS(=O)(=O)NC(=O)c2ccccc2O)[C@H](F)[C@H]1F,Ki,[12],0.0014 µM
same,MIC,[4],0.78 µM
CCN(CC)S(=O)(=O)c1cccc(-n2sc3ccccc3c2=O)c1,IC50,[4],0.86 µM
same,IC50,[22],0.96 µM
Nc1ncnc2c1ncn2[C@@H]1O[C@H](COS(=O)(=O)NC(=O)c2ccccc2O)[C@@H](O)[C@H]1O,MIC,[23],0.39 µg/mL
same,MIC,[2],0.39 µM
same,MIC,[3],1.56 µM
same,MIC,[24],0.5 µg/mL
C[N+](C)(CCCN1c2ccccc2Sc2ccc(Cl)cc21)Cc1ccccc1,MIC,[25],1.1 µg/mL
Nc1ncnc2c1ncn2[C@@H]1O[C@H](CNS(=O)(=O)NC(=O)c2ccccc2O)[C@@H](O)[C@H]1F,Ki,[12],0.0017 µM
same,MIC,[20],0.19 µM
COC(=O)C(=Cc1ccccc1C(F)(F)F)Oc1cccc(C(=O)OC)c1O,Ki,[12],125 µM
same,MIC,[13],25 µM
Cc1ccc(S(=O)(=O)C2CC(=O)N(c3ccc(F)c(Cl)c3)C2=O)cc1 (stereo not drawn),MIC90,[26],17.5 µg/mL
same,IC50,[14],24.3 µg/mL
Nc1ncnc2c1ncn2[C@@H]1O[C@H](CNS(=O)(=O)NC(=O)c2ccccc2O)[C@@H](O)[C@@H]1F,Ki,[12],0.0018 µM
same,MIC,[20],0.15 µM
CC1CC(=O)c2c(cc(O)cc2C(=O)O)O1 (stereo not drawn),MIC,[9],55.8 µM
